The subject of the experiment is CK2 activity in cell extracts. The conditions noted are these: then lysed.

This note sets out measurements from doi:10.1101/2022.12.16.520736v1 (biorxiv, 2022).

Where two headings read alike, the source gives them in different places.

By IC50 is commonly meant the concentration needed to halve the response being measured. A high value points to weaker potency.

`CC(C)COC(=O)c1[nH]c2ccc(F)cc2c1-c1cn(CC2CCN(CCNS(=O)(=O)c3ccc(CC(C)C)cc3)CC2)nn1` [AB668]: the IC50 is, setting by setting: (786-O cells treated with the inhibitor) 340 ± 70 nM; (HEK293 cells treated with the inhibitor) 600 ± 110 nM.
